Target: Sys410 (uncultured bacterium, UniProt H9CDG2)
Test: spectrophotometric p-nitrophenol release at […] nm, Michaelis-Menten fit
Conditions: pH 6.5, potassium phosphate 50 mM, 55°C, gum arabic and Triton X-100 in substrate solution

Chain of Sys410 (H9CDG2 1-280 limits assumed): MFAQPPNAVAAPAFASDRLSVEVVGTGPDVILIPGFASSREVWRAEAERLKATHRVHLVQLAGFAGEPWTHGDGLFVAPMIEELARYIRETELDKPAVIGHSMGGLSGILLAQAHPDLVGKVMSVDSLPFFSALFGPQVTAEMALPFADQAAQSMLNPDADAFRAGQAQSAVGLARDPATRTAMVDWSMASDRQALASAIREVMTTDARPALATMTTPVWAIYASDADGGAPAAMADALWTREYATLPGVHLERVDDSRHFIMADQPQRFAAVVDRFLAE

Work on `CCCCCCCC(=O)Oc1ccc([N+](=O)[O-])cc1` [C6, ρ-nitrophenyl caprylate] yielded a Km (paper labels caprylate as C6, chain length uncertain) of 33.2 ± 2.1 µM.
`CCCCCC(=O)Oc1ccc([N+](=O)[O-])cc1` [C8, ρ-nitrophenyl caproate] showed a Km (paper labels caproate as C8, chain length uncertain) of 57.6 ± 1.9 µM.

— article PMC3317823, “Identification and characterization of a novel thermostable pyrethroid-hydrolyzing enzyme isolated through metagenomic approach” (Microbial Cell Factories, 2012)
